Key:
[1] = system: hepatic colonic carcinoma; test: Tumor weight in rats bearing transplanted hepatic colonic carcinoma; format: in vivo, rat
Text: (§1) The present inventors have considerable experience with this model, and the antitumor effects of 5-FU shown are typical results, as are the TS and folate assays of control and 5-FU-only-treated rats. […] In fact, the "free TS" levels in the (6R,S)-FH4 -only-treated rats were the lowest of all arms of the study.
>94% by HPLC). The (6 R,S)FH 4 was weighed, dissolved in normal
saline, and injected daily by tail vein administration using the airfree
Protector device to prevent oxidative destruction of the folate.
(§2) ^b Inoculation of 1 × 10^6 viable colon tumor
(§3) (nitrosoguanidineinduced) cells under the liver capsule on Day 1 (Carlsso
(§4) et al., Anticancer Res. 10:813-16 (1990)). Animals sacrificed on Day 17
(§5) for excision of single liver tumor nodules for pharmacodynamic studies.

[2] = cited from earlier work
TS = TS assay in liver tumors of rats bearing transplanted hepatic colonic carcinoma; format: in vivo, rat; settings: 30 mg/kg each; 24 h after last injection; control 18.96
Text: as §1, §2, §3, §4, §5
(§6) ^d Assays done as described (Spears et al. Adv. Exp. Med. Biol.

[3] = system: 5,10-CH2 FH4 and FH4 levels in liver tumor; test: Folate assay (5,10-CH2 FH4 and FH4) in liver tumors of rats; format: in vivo, rat; settings: 30 mg/kg each, 24 h after last injection
Text: as §1, §2, §3, §4, §5, §6

[4] = system: CH2 FH4 and FH4 in breast cancer biopsies; test: CH2 FH4 and FH4 levels in breast cancer biopsies during L-serine infusion after high-dose (6R,S)-leucovorin; format: in vivo, human; set-up: CH2 FH4 / FH4: unit not given here
Protocol: (§7) As noted previously (see pages 5-6) and mentioned in C. P. Spears, et al., Proc. Am. Soc. Clin. Oncol. 8:69 (1989), the inventors have used pharmacologic intervention to convert intracellular FH4 to CH2 FH4 in patients receiving high-dose reduced folate therapy combined with weekly i.v. bolus 5-FU, 450 mg/sq. m. The method used was administration of i.v. L-serine, 15.0 grams, over 1 hour after the end of overnight high-dose (6R,S)-leucovorin i.v. infusion.
In contrast to the data shown in Tables II and III, the inventors were able to also assay for intratumoral FH4 in addition to CH2 FH4 (this latter is also referred to as "FBC" in those Tables or Folate-Binding Capacity), at time points during this pharmacologic forcing of metabolism of FH4 to CH2 FH4 through the enzyme, serine hydroxymethyltransferase. This enzyme splits a carbon of L-serine to generate formaldehyde in the presence of FH4.
^a Minutes after initiation of 15.0 gram LSerine i.v. 60min infusion,
after end of overnight (6R,S)leucovorin highdose i.v. infusion.
^b Assays performed as described (C.P. Spears et al., Adv. Exp. Med.

breast cancer = test: Clinical effect in patients receiving 5-FU plus high-dose (6R,S)-leucovorin with L-serine or glycine; format: in vivo, human; settings: person; L-serine i.v. added to 5-FU/(6R,S)-leucovorin, subsequently glycine 10 grams i.v.
Protocol: as §7, with “Soc.” left out

[5] = Dimedone trapping of labile 14CH2O group on dilution; format: physicochemical; settings: 46,664 DPM diluted to 1 ml in H2O, 37° C.
Text: This requirement for a large excess of formaldehyde to shift the equilibrium between FH4 and CH2 FH4 (Eq. 1) was found by the inventors to
be independent of temperature, pH or the formaldehyde content of charcoal isolation, the presence of air exposure, or the presence of reducing agents. In addition, [11-^14 C]CH2 FH4 prepared as described (Moran et al., Proc. Natl. Acad. Sci. USA 76:1456-60 (1979)), and DEAE-purified (as the concentrated material) of excess ^14 CH2 O, was confirmed to have a labile ^14 CH2 O group by dimedone trapping.

gastrointestinal cancers = settings: human, in vivo; cited from earlier work
[6] = separate confirmatory experiment, 6 rats/group
[7] = patient four, 25 min after initiation of 15.0 g L-serine i.v.
[8] = patient four, 82 min after initiation of 15.0 g L-serine i.v.
[9] = patient two, 22 min after initiation of 15.0 g L-serine i.v.
[10] = patient two, 65 min after initiation of 15.0 g L-serine i.v.

Cl.Cl.Nc1nc2c(c(=O)[nH]1)NC(CNc1ccc(C(=O)N[C@@H](CCC(=O)O)C(=O)O)cc1)CN2.O (mixture of isomers) [(6R,S)-FH4, 5,6,7,8Tetrahydropteroyl-L-glutamic acid dihydrochloride monohydrate]
Tumor weight ([1]; Day 17 after transplantation, 30 mg/kg each, average of 3 rats, control 5.84): 10.43 g
tumor growth, % of control tumor weight [1, 6]: 171%
tumor size (weight) [1, 6]: 6.0 ± 1.1 g
stability of powder ([2]; anaerobic conditions, room temperature): stable even at room temperature, for a year or more
stability under anaerobic conditions ([2]; anaerobic conditions): completely stable
degradation of solution ([2]; in […], exposed to air): 90%
TS (TS): 7.13 p mole/g
5,10-CH2 FH4 ([3]; control 0.69): 2.93 nmol/g
FH4 ([3]; control 1.18): 2.31 nmol/g

N[C@@H](CO)C(=O)O [L-serine]
Ratio of FH4/CH2 FH4 ([4]; patient four, 25 min): 2.9
CH2 FH4 [4, 7]: 0.396
FH4 [4, 7]: 1.128
Ratio of FH4/CH2 FH4 ([4]; patient four, 82 min): 3.0
CH2 FH4 [4, 8]: 0.475
FH4 [4, 8]: 1.420
Ratio of FH4/CH2 FH4 ([4]; patient two, 22 min): 3.4
CH2 FH4 [4, 9]: 0.253
FH4 [4, 9]: 0.854
Ratio of FH4/CH2 FH4 ([4]; patient two, 65 min): 2.7
CH2 FH4 [4, 10]: 0.340
FH4 [4, 10]: 0.907
Clinical effect, third patient (breast cancer): rapid acceleration of objective tumor growth and tumor symptoms

Nc1nc2c(c(=O)[nH]1)N1[14CH2]N(c3ccc(C(=O)N[C@@H](CCC(=O)O)C(=O)O)cc3)CC1CN2 (stereo partly shown) [[11-^14 C]-CH2 FH4]
label recoverable by chloroform extraction of dimedone (methone) product [5]: 67.8%

Nc1nc2ncc(CNc3ccc(C(=O)N[C@@H](CCC(=O)O)C(=O)O)cc3)nc2c(=O)[nH]1 [folic acid]
effect of addition to 5-FU therapy (gastrointestinal cancers): increase in toxicity without improved response rates

NCC(=O)O [glycine]
Clinical effect, third patient (breast cancer): rapid response to 5-FU therapy

Reference: patent publication US5376658A, “5,10-methylene-tetrahydrofolate as a modulator of a chemotherapeutic agent” (priority 1993, dated 1994)
